Measured values: paper PMC12234328, “A naphthalimide derivative exerts potent antiplatelet and antithrombotic activities without a bleeding tendency” (Frontiers in Pharmacology, 2025)

Columns and labels:
[1] = system: collagen-triggered ATP release in human platelets; test: ATP release in human platelet suspensions (luciferase/luciferin); assay type: cell-based; conditions: 2.5 and 5 μM, collagen 1 μg/mL, n = 4
Protocol: Adenosine triphosphate (ATP) release and calcium mobilization were assessed as previously described ([Shih et al., 2021]). Luciferase–luciferin and Fura-2 AM were used to detect ATP release and calcium mobilization, respectively. The intensity of luminescence (indicating ATP release) and the fluorescence ratio (340 nm/380 nm) for calcium mobilization were measured using a Hitachi Spectrometer F-7000 (Tokyo, Japan) following the manufacturer’s instructions.
FIGURE 8 Effects of compound 6 on ATP release, calcium mobilization, and GPIIb–IIIa activation triggered by collagen in human platelets. Washed platelets (3.6 × 10^8 cells/mL) were treated with compound 6 (C6, 2.5 and 5 μM) or DMSO and then stimulated with collagen (1 μg/mL) to trigger ATP release (A), calcium mobilization (B), and GPIIb–IIIa activation (C) that were detected using luciferase/luciferin, Fura-2 AM, and APC–PAC1 antibodies, respectively. Data (A–C) are presented as means ± SEM (n = 4). **p < 0.01 and ***p < 0.001 compared with the resting group. #p < 0.05, ##p < 0.01, and ###p < 0.001 compared with the DMSO (solvent control) group.

[2] = system: human platelet suspensions stimulated with U46619; test: U46619-induced platelet aggregation; assay type: cell-based; conditions: 5–50 μM, 1 μM U46619
Description: This study received approval from the Taipei Medical University–Joint Institutional Review Board (TMU-JIRB-No. N202003148) and adhered to the principles of the Declaration of Helsinki. Informed consent was obtained from all volunteers before their participation. Human platelets were washed and prepared according to previously established methods ([Lu et al., 2019]). Whole blood was collected from healthy participants who had not taken any medications, including nonsteroidal anti-inflammatory drugs or aspirin, in the preceding 2 weeks. The blood was drawn into polypropylene tubes containing an acid citrate–dextrose solution (9:1, v/v). After mixing, the samples were centrifuged at 120 g for 10 min. The upper layer of platelet-rich plasma was collected and supplemented with prostaglandin E1 and heparin. Following further centrifugation at 500 g for 10 min, the platelet pellets were washed twice. The platelets were then resuspended in Tyrode’s solution containing 3.5 mg/mL bovine serum albumin (B.S.A.) to create platelet suspensions. The final Ca^2+ concentration of the platelet suspensions (3.6 × 10^8 cells/mL) was 1 mM.
Platelet aggregation was measured using a lumi-aggregometer (Payton, Scarborough, Canada) through the turbidimetric method ([Lu et al., 2019]). […] Subsequently, various agonists were added and platelet aggregation was then recorded for an additional 6 min. […]

recombinant human GPVI = target: T1, recombinant human GPVI (Homo sapiens, UniProt Q9HCN6); test: Surface plasmon resonance binding assay (OpenSPR); conditions: his-tagged recombinant GPVI on NTA chip, compound at 0.1 and 1 μM; read-out: KD (equilibrium dissociation constant)
T1 sequence (Q9HCN6 21-267 limits assumed): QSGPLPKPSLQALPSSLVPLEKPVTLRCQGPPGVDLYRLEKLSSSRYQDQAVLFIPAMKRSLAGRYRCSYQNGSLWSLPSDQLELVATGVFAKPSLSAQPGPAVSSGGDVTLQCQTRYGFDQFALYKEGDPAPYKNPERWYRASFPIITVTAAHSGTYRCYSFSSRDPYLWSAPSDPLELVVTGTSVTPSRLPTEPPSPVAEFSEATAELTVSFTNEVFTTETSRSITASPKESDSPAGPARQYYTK
Protocol: Surface plasmon resonance (SPR) analysis was performed using an OpenSPR instrument (Nicoya, Kitchener, Canada). A nitrilotriacetic acid (NTA) sensor chip was installed in the OpenSPR instrument. Running buffer (phosphate-buffered saline) was pumped at the maximum flow rate, and 80% isopropanol was injected to remove any bubbles. Subsequently, 200 μL of a 200 mM imidazole solution was injected to prime the sensor surface. After rinsing the chip with running buffer, 200 μL of a 40 mM NiCl2 solution was used to activate the NTA chip. After 5 min of interaction time, his-tagged recombinant GPVI proteins were bound to the NTA chip by perfusing the GPVI protein solution at a flow rate of 20 μL/min. Solutions of compound 5 or compound 6 (0.1 and 1 μM) were then injected. The equilibrium dissociation constant (KD) was determined using the OpenSPR system (Nicoya).
An SPR binding assay was performed. First, recombinant human GPVI was coated on the NTA sensor chip. Solutions of compound 5 and compound 6 (0.1 and 1 μM) were then perfused on the chip, and the KD was determined using the OpenSPR system (Nicoya Lifesciences).
FIGURE 7 Direct binding of compound 6 on GPVI. […] Equilibrium dissociation constant (KD) were determined using the OpenSPR system. […]

For `CCCCN1C(=O)c2cccc3c(NCCNC(=O)C45CC6CC(CC(C6)C4)C5)ccc(c23)C1=O` [compound 6], the “Collagen-triggered ATP release” value [1] was “markedly reduced”, the “Effect on U46619-induced platelet aggregation” value [2] was “did not significantly affect” and the Kd (recombinant human GPVI) was 160 nM.
